Where “and” joins values, the source holds several entries; their conditions need not be identical. Equal entries are not always repeated.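 Values below derive from 48-hour exposures of cells grown in 96-well plates, with endpoints linearly interpolated between the two concentrations bracketing the appropriate inhibition level. GI50: concentration for 50% inhibition of growth. Definition used: TGI = concentration required for complete inhibition of growth.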
Columns and labels:
Assay in all cases: growth of human tumour cells (NCI), 48 h
MALME-3M melanoma = tested on: MALME-3M melanoma
SF-268 CNS = tested on: SF-268 CNS
IGROV1 ovarian = tested on: IGROV1 ovarian
SF-539 CNS = tested on: SF-539 CNS
A549 NSCLC = tested on: A549 NSCLC
HCT-116 colon = tested on: HCT-116 colon
OVCAR-5 ovarian = tested on: OVCAR-5 ovarian
CAKI-1 renal = tested on: CAKI-1 renal
HL-60(TB) leukemia = tested on: HL-60(TB) leukemia

| SMILES | TGI (MALME-3M melanoma) | TGI (SF-268 CNS) | TGI (IGROV1 ovarian) | TGI (SF-539 CNS) | TGI (A549 NSCLC) | TGI (HCT-116 colon) | TGI (OVCAR-5 ovarian) | TGI (CAKI-1 renal) | TGI (HL-60(TB) leukemia) | GI50 (MALME-3M melanoma) | GI50 (SF-268 CNS) | GI50 (IGROV1 ovarian) | GI50 (SF-539 CNS) | GI50 (A549 NSCLC) | GI50 (HCT-116 colon) | GI50 (OVCAR-5 ovarian) | GI50 (HL-60(TB) leukemia) | GI50 (CAKI-1 renal) |
| --- | --- | --- | --- | --- | --- | --- | --- | --- | --- | --- | --- | --- | --- | --- | --- | --- | --- | --- |
| C=CCN1C(=O)C/C(=C2/CCC(=O)N2CC=C)C1=O | > 100 µM | > 100 µM | > 100 µM | > 100 µM | > 100 µM | > 100 µM | > 100 µM | > 100 µM | > 100 µM |  |  |  |  |  |  |  |  |  |
| Cc1ccc(S(=O)(=O)N/N=C/CN2C(=O)c3ccccc3C2=O)cc1 | > 100 µM |  | > 100 µM | > 100 µM | > 100 µM | > 100 µM |  | > 100 µM | > 100 µM |  |  |  |  |  |  |  |  |  |
| O=C(/C=C/c1ccc(OCCCOc2ccc(/C=C/C(=O)c3ccc(Cl)cc3)cc2)cc1)c1ccc(Cl)cc1 | > 100 µM | > 100 µM | > 100 µM | > 100 µM | > 100 µM | > 100 µM | > 100 µM | > 100 µM | > 100 µM |  |  |  |  |  |  |  |  |  |
| CCc1cc2c(c3[nH]ccc13)[C@@H](C)C[C@H]2C | 35.4 µM |  | 36.2 µM |  | 42.2 µM | 30.1 µM |  | 34.7 µM | 48.8 µM |  |  |  |  |  |  |  |  |  |
| CC(C(=O)C(C)O[Si](c1ccccc1)(c1ccccc1)C(C)(C)C)=P(c1ccccc1)(c1ccccc1)c1ccccc1 (stereo not given) | 12 µM |  | 13.9 µM | 13.4 µM | 13.3 µM | 10.6 µM | 24.9 µM |  | 4.24 µM |  |  |  |  |  |  |  |  |  |
| BrCC[N+]12CCCN1CCC2 | 5.2 µM | 58.9 µM | 51.1 µM | 32.9 µM | > 81.8 µM | 22.8 µM | 40 µM | 2.44 µM | 12.9 µM |  |  |  |  |  |  |  |  |  |
| COc1cccc(C2N3CCCCC3[C@@H]3c4[nH]c5ccccc5c4CCN23)c1OC (stereo not given in full) |  | 23.7 µM | 34.7 µM | 28.5 µM | 29.9 µM | 31.1 µM | 29.4 µM | 33.5 µM | 31.7 µM |  |  |  |  |  |  |  |  |  |
| CC(C)N(C(=O)C12C3C4C5C3C1(C(=O)N(C(C)C)C(C)C)C5C42)C(C)C (stereo not given) | > 100 µM | > 100 µM | > 100 µM | > 100 µM | > 100 µM | > 57.8 µM | > 100 µM | > 100 µM | > 55.6 µM |  |  |  |  |  |  |  |  |  |
| Cc1nc(=O)n2c(c1C(=O)Nc1ccc(Cl)cc1)NCCC2 | > 100 µM | > 100 µM | > 100 µM | > 100 µM | > 100 µM | > 100 µM | > 100 µM | > 100 µM | > 100 µM |  |  |  |  |  |  |  |  |  |
| O=C1CCC(=O)C(C(=O)CCC(=O)Nc2ccc(Cl)cc2)C1 (stereo not given) | > 100 µM | > 100 µM | > 100 µM | > 100 µM | > 100 µM | > 100 µM | > 100 µM | > 100 µM | > 100 µM |  |  |  |  |  |  |  |  |  |
| COc1ccc(CN[C@H]2CCc3cc(OC)c(OC)c(OC)c3-c3ccc(SC)c(=O)cc32)c(OC)c1OC | > 100 µM |  | > 100 µM | 0.0478 µM and 0.0387 µM | > 100 µM | 0.0597 µM and 0.133 µM | > 100 µM | > 100 µM |  | < 0.01 µM | 0.0111 µM | 0.0395 µM | 0.01 µM | 0.0251 µM | < 0.01 µM | > 100 µM | < 0.01 µM |  |
| CCC[CH2][Sn]1([CH2]CCC)[O]N=Cc2ccccc2[O]1 | 0.978 µM |  | 2.25 µM | 2.43 µM | 3.8 µM | 2.73 µM | 3.08 µM | 1.08 µM | 0.726 µM | 0.439 µM |  | 1.03 µM | 1.17 µM | 1.84 µM | 1.43 µM | 1.69 µM | 0.183 µM | 0.322 µM |
| COC(=O)C([O][Ge]([CH3])([CH3])[CH3])c1ccccc1 (stereo not given) | > 100 µM | > 100 µM | > 100 µM | > 100 µM | > 100 µM | > 100 µM | > 100 µM | > 100 µM | > 100 µM | > 100 µM | > 100 µM | > 100 µM | > 100 µM | > 100 µM | > 100 µM | > 100 µM | 90.8 µM | > 100 µM |
| CC1(C)CC(=O)C=C(NC(=O)c2ccccc2)C1 | > 100 µM | > 100 µM | > 100 µM | > 100 µM | > 100 µM | > 100 µM |  | > 100 µM | > 100 µM |  |  |  |  |  |  |  |  |  |
| COc1ccc2nc(NC(=O)C(=O)C(C#N)c3ccc(CC#N)cc3)sc2c1 (stereo not given) | > 100 µM | > 100 µM | > 100 µM | > 100 µM | > 100 µM | > 100 µM | > 100 µM | > 100 µM | > 100 µM |  |  |  |  |  |  |  |  |  |
| Cc1ccc(/C=C2\CN(C(=O)CCN3CCC(=NO)CC3)C/C(=C\c3ccc(C)cc3)C2=O)cc1 |  | 4.7 µM |  | 3.27 µM | 7.68 µM | 1.28 µM | 3.47 µM |  | 4.6 µM |  | 1.92 µM |  | 1.77 µM | 2.43 µM | 0.363 µM | 1.79 µM | 1.69 µM |  |

— PubChem BioAssay (NCI)
